2 compounds from patent US8338337B2, “Substituted pyridines having a herbicidal effect” (BASF SE, priority 2008, dated 2012) can be followed below.

The structures appear in SMILES notation.

The test system of test [1] is ABUTH. In words: greenhouse post-emergence herbicidal test. It is filed as in vivo, Abutilon theophrasti. The settings on record: 3.0 kg/ha, scale 0 to 100. The text has this: The seeds of the test plants were sown separately for each species. For the post-emergence treatment, the test plants were first grown to a height of 3 to 15 cm, depending on the plant habit, and then treated with the active compounds which had been suspended or emulsified in water. For this purpose, the test plants were either sown directly and grown in the same containers, or they were first grown separately as seedlings and transplanted into the test containers a few days prior to treatment. Depending on the species, the plants were kept at 10-25° C. or 20-35° C. The test period extended over 2 to 4 weeks. During this time, the plants were tended, and their response to the individual treatments was evaluated. Evaluation was carried out using a scale from 0 to 100. 100 means no emergence of the plants, or complete destruction of at least the aerial moieties, and 0 means no damage, or normal course of growth. A good herbicidal activity is given at values of at least 70 and a very good herbicidal activity is given at values of at least 85. [table]

Test [2] relates to AMARE. In words: greenhouse pre-emergence herbicidal test. The settings on record: 0.5 kg/ha, scale 0 to 100. It counts as in vivo, Amaranthus retroflexus. The text has this: The seeds of the test plants were sown separately for each species. For the pre-emergence treatment, the active compounds, which had been suspended or emulsified in water, were applied directly after sowing by means of finely distributing nozzles. The containers were irrigated gently to promote germination and growth and subsequently covered with transparent plastic hoods until the plants had rooted. This cover caused uniform germination of the test plants, unless this has been impaired by the active compounds. Depending on the species, the plants were kept at 10-25° C. or 20-35° C. The test period extended over 2 to 4 weeks. During this time, the plants were tended, and their response to the individual treatments was evaluated. Evaluation was carried out using a scale from 0 to 100. 100 means no emergence of the plants, or complete destruction of at least the aerial moieties, and 0 means no damage, or normal course of growth. A good herbicidal activity is given at values of at least 70 and a very good herbicidal activity is given at values of at least 85. [table]

Consider `O=c1oc2ccc(O)nc2c(O)c1-c1ccccc1C(F)(F)F` [I-23], for which the “herbicidal activity against ABUTH” value in test [1] was “good (A good herbicidal activity is given at values of at least 70)”.

For the compound `O=c1oc2cccnc2c(O)c1-c1cc(C(F)(F)F)ccc1C(F)(F)F` [I-35], the “herbicidal activity against AMARE” value in test [2] is on record as “very good (a very good herbicidal activity is given at values of at least 85)”.
